What was measured:
Type in all cases: cell-based
Bacillus cereus = assay: agar plate disc-diffusion, antibacterial, Bacillus cereus; details: nutrient agar, 37° C., 48 h, DMSO control zone subtracted
Experimental: (§1) The agar plate disc-diffusion method was applied. […] The discs were then placed onto the surface of agar plates (nutrient agar for bacteria and Sabouraud's dextrose agar for fungi) seeded with the test organism. Each plate contained 15 mL of the agar medium, previously seeded with 0.2 mL of the broth culture of each organism pregrown for 18 h. The plates were incubated at 37° C. for 48 h, and 72 h for fungi. The inhibition zones was measured in mm. Discs impregnated with DMSO were used as a control, and its inhibition zone was subtracted from the tested compound actual inhibition zone.
(§2) The antibacterial activity was screened against gram positive bacteria namely Bacillus cereus and Staphylococcus aureus and gram-negative bacterial strains namely Pseudomonas aeruginosa and Escherichia coli, while the antifungal activity was screened against Aspergillus flavus and Chrysosporium keratinophilum as shown in Table 1 and 2.

Pseudomonas aeruginosa = assay: agar plate disc-diffusion, antibacterial, Pseudomonas aeruginosa; details: nutrient agar, 37° C., 48 h, DMSO control zone subtracted
Experimental: as §1, §2

Staphylococcus aureus = assay: agar plate disc-diffusion, antibacterial, Staphylococcus aureus; details: nutrient agar, 37° C., 48 h, DMSO control zone subtracted
Experimental: as §1, §2

Aspergillus flavus = assay: agar plate disc-diffusion, antifungal, Aspergillus flavus; details: Sabouraud's dextrose agar, 72 h, DMSO control zone subtracted
Experimental: as §1, §2

[1] = tested on: Chrysosporium keratinophilum; assay: agar plate disc-diffusion, antifungal, Chrysosporium keratinophilum; details: Sabouraud's dextrose agar, 72 h, DMSO control zone subtracted
Experimental: as §1, §2

Escherichia coli = assay: agar plate disc-diffusion, antibacterial, Escherichia coli; details: nutrient agar, 37° C., 48 h, DMSO control zone subtracted
Experimental: The agar plate disc-diffusion method was applied. Sterilized filter papers (6 mm in diameter) were wetted with 10 μL of a solution of N′-(2-(5-(4-chlorophenyl)-1,3,4-oxadiazol-2-ylthio)acetoxy)-3,4-dimethoxybenzimidamide (3) to be tested, containing 10 mg/mL in DMSO, and the discs were allowed to air dry. The discs were then placed onto the surface of agar plates (nutrient agar for bacteria and Sabouraud's dextrose agar for fungi) seeded with the test organism. Each plate contained 15 mL of the agar medium, previously seeded with 0.2 mL of the broth culture of each organism pregrown for 18 h. The plates were incubated at 37° C. for 48 h, and 72 h for fungi. The inhibition zones was measured in mm. Discs impregnated with DMSO were used as a control, and its inhibition zone was subtracted from the tested compound actual inhibition zone.
as §2

[2] = B = concentration of comp. = 30,000 μL
[3] = C = concentration of comp. = 50,000 μL
[4] = A = concentration of comp. = 10,000 μL
[5] = A = concentration of comp. = 10,000 μg/mL

For `COc1ccc(/C(N)=N/OC(=O)CSc2nnc(-c3ccc(Cl)cc3)o2)cc1OC` [compound 3, N′-(2-(5-(4-chlorophenyl)-1,3,4-oxadiazol-2-ylthio)acetoxy)-3,4-dimethoxybenzimidamide], the “inhibition zone, Bacillus Cereus, A” value (Bacillus cereus; A =) was 27 mm, the “inhibition zone, Bacillus Cereus, B” value (Bacillus cereus; [2]) was 30 mm and the “inhibition zone, Bacillus Cereus, C” value (Bacillus cereus; [3]) was 40 mm. For the same molecule, the “inhibition zone, Pseudomonas aeruginosa, A” value (Pseudomonas aeruginosa; [4]) was 25 mm, the “inhibition zone, Pseudomonas aeruginosa, B” value (Pseudomonas aeruginosa; [2]) was 29 mm and the “inhibition zone, Pseudomonas aeruginosa, C” value (Pseudomonas aeruginosa; [3]) was 41 mm. For the same molecule, the “inhibition zone, Staphylococcus aureus, A” value (Staphylococcus aureus; [5]) was 17 mm, the “inhibition zone, Staphylococcus aureus, B” value (Staphylococcus aureus; [2]) was 22 mm and the “inhibition zone, Staphylococcus aureus, C” value (Staphylococcus aureus; [3]) was 37 mm. The “inhibition zone, Aspergillus flavus, A” value (Aspergillus flavus; [4]) was 22 mm, the “inhibition zone, Aspergillus flavus, B” value (Aspergillus flavus; [2]) was 26 mm and the “inhibition zone, Aspergillus flavus, C” value (Aspergillus flavus; [3]) was 37 mm. For the same molecule, the “inhibition zone, Chrysosporium keratinophilum, A” value ([1]; A =) was 26 mm, the “inhibition zone, Chrysosporium keratinophilum, B” value [1, 2] was 27 mm and the “inhibition zone, Chrysosporium keratinophilum, C” value [1, 3] was 40 mm. For the same molecule, the “inhibition zone, Escherichia coli, A” value (Escherichia coli; [5]) was 28 mm, the “inhibition zone, Escherichia coli, B” value (Escherichia coli; [2]) was 31 mm and the “inhibition zone, Escherichia coli, C” value (Escherichia coli; [3]) was 48 mm.

— patent publication US11912675B1, “N'-(2-(5-(4-chlorophenyl)-1,3,4-oxadiazol-2-ylthio)acetoxy)-3,4-dimethoxybenzimidamide as an antimicrobial compound” (KING FAISAL UNIVERSITY, priority 2023, dated 2024)
